# Laboratory results taken from patent US6486326B2, “iso-CBI and iso-CI analogs of CC-1065 duocarmycins” (The Scripps Research Institute, priority 1997, dated 2002).
# Several values for one entry are separate records, joined by “and”; a condition that tells them apart may be missing. Identical values can stand only once.
# Assays:
# calf thymus DNA = assay: Calf thymus DNA alkylation, quantitation of adenine N3 adduct; format: biochemical; conditions: for conversion to thermally released adenine adduct 66: 4° C., 72 h, ca. 150 bp, then 100° C., 30 min, pH 7.0, four runs
# Procedure: This was addressed through a study of the alkylation of calf thymus DNA. Optimized conditions for the alkylation were established for (−)-44 on an analytical scale (100 μg of agent). For this purpose, the long-wavelength UV absorption of the agent and the adduct provided a useful quantitative measure of the adenine adduct, unreacted starting material and any side products (solvolysis or rearrangement), Table 3. Analytical HPLC analysis was used to confirm the identity of the products through correlation of retention times and UV spectral data with authentic materials. The preparative DNA alkylation reaction and subsequent isolation of (+)-66 was carried out under conditions determined to provide complete consumption of the agent in the presence of a large excess of DNA Thus, extraction (EtOAc) of the aqueous buffer solution containing calf thymus DNA following alkylation (4° C., 72 h, 150 bp) afforded no recovered (−)-44, and only a small amount (<5%) of the rearranged product 65. Conducting the reaction at 4° C. in the presence of a large excess of DNA precluded competitive solvolysis. Thermal treatment of the alkylated DNA in aqueous 10 mM sodium phosphate buffer (100° C., 30 min, pH 7.0) followed by EtOAc extraction provided 66 in 90-95% conversion, ≧95% purity (by HPLC). Repeating this thermal treatment provided little or no additional adduct. No trace of a competing guanine adduct could be detected. This high conversion to a single adduct established that 44 participates exclusively in the adenine N3 alkylation reaction under the conditions examined.
# [1] = test system: w794 DNA (SV40 DNA segment, 144 bp); assay: DNA alkylation selectivity and efficiency, thermally-induced strand cleavage of w794 DNA; format: biochemical
# Procedure: FIG. 5 illustrates thermally-induced strand cleavage of w794 DNA (SV40 DNA segment, 144 bp, nucleotide nos. 138-5238); DNA-agent incubation for 24 hours at 25° C., removal of unbound agent and 30 minutes of thermolysis (100° C.), followed by denaturing 8% PAGE and autoradiography, lane 1, control DNA; lanes 2-5, Sanger G, C, A, and T sequencing reactions; lanes 6-7 (−)-iso-CBI-TMI (1×10^−3 and 1×10^−4 M); lanes 8-9, (+)-CBI-TMI (1×10^−5 and 1×10^−4 M); lanes 10-11, (+)-duocarmycin SA (1×10^−5 and 1×10^−6).
# FIG. 7 illustrates thermally-induced strand cleavage of w794 DNA (SV40 DNA segment, 144 bp, nucleotide nos. 138-5238); DNA-agent incubation for 24 h at 25° C., removal of unbound agent and 30 min of thermolysis (100° C.), followed by denaturing 8% PAGE and autoradiography; lane 1, control DNA; lanes 2-5, Sanger G, C, A, and T sequencing reactions; lanes 6-8 (+)-duocarmycin SA (1×10^−4 to 1×10^−6 M); lanes9-11, seco-iso-CI-TMI (1×10^−3 to 1×10^−5 M).
# DNA Alkylation Selectivity and Efficiency: The DNA alkylation properties of the agents were examined within w794 and w836 duplex DNA for which comparative results are available for related agents. (Boger, D. L., et al., J. Am. Chem. Soc. 1994, 116, 11335; Boger, D. L., et al., J. Am. Chem. Soc. 1994, 116, 6461; and Boger, D. L., et al., J. Am. Chem. Soc. 1995, 117, 11647) The alkylation site identification and the assessment of the relative selectivity among the available sites were obtained by thermally-induced strand cleavage of the singly 5′ end-labeled duplex DNA after exposure to the agents. Following treatment of the end-labeled duplex DNA with a range of agent concentrations and temperatures in the dark, the unbound agent was removed by EtOH precipitation of the DNA Redissolution of the DNA in aqueous buffer, thermolysis (100° C., 30 min) to induce strand cleavage at the sites of DNA alkylation, denaturing high-resolution polyacrylamide gel electrophoresis (PAGE) adjacent to Sanger dideoxynucleotide sequencing standards, and autoradiography led to identification of the DNA cleavage and alkylation sites. The full details of this procedure have been disclosed elsewhere. (Boger, D. L., et al., Tetrahedron 1991, 47, 2661.)
# DNA Alkylation Studies: Selectivity and Efficiency: Eppendorf tubes containing singly ^32p 5′-end-labeled double-stranded DNA (9 μL) (Boger, D. L., et al., Tetrahedron 1991, 47, 2661.) in TE buffer (10 mM Tris, 1 mM EDTA, pH 7.5) were treated with the agents in DMSO (1 μL, at the specified concentrations). The solutions were mixed by vortexing and brief centrifugation and subsequently incubated at 4° C., 25° C. or 37° C. for 24-72 h. […]
smiles,measurement,setting,value
"COc1cc2cc(C(=O)N3CC4CC45C(=O)c4ccccc4C=C35)[nH]c2c(OC)c1OC (single isomer, unassigned; (-)) [(−)-iso-CBI-TMI, 2-[(5,6,7-Trimethoxyindol-2-yl)carbonyl]-1,2,9,9a-tetrahydrocyclopropa[c]benzo[f]indol-8-one]",conversion to thermally released adenine adduct 66,calf thymus DNA,95% and 90-95%
same,conversion to thermally released adenine adduct 66,calf thymus DNA; listed as (−)-44,90-95%
same,consumption of the agent accounted for by adenine N3 addition,calf thymus DNA; in the presence of duplex DNA,90-100%
same,DNA alkylation sequence selectivity compared with (+)-duocarmycin SA,[1],same sequence selectivity
same,"DNA alkylation efficiency, less efficient than (+)-CBI-TMI and (+)-duocarmycin SA","[1]; 24 h, 25° C.",50-100 ×
